Several values for one entry are separate records, joined by “and”; a condition that tells them apart may be missing. Identical values can stand only once. Like-named read-outs stand apart in the source and are kept apart here.
Experiments:
Type in all cases: in vivo
Veronica hederifolia = experiment: Post-emergence herbicidal action against Veronica hederifolia
Phalaris minor = experiment: Post-emergence herbicidal action against Phalaris minor
In short: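 Assessment time was recorded as days after application. Activity for mixtures was set against E^C, the Colby expected value, and against E^A, the total of the effects from each component applied alone; application rates were in g of active substance per hectare.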

Alopecurus myosuroides = experiment: Post-emergence herbicidal action against Alopecurus myosuroides
Bellis perenne = experiment: Post-emergence herbicidal action against Bellis perenne; details: 100 g of a.i./ha
Experimental: When the observed efficacies exceed the formal sum total of the values of the tests with individual applications, they also exceed the expected value according to Colby, which is calculated using the formula below and is likewise regarded as an indication of synergism (cf. S. R. Colby; in Weeds 15 (1967) p. 20 to 22): E^C=A+B−([…])
Here: • A=efficacy of the active compound (A) in % at an application rate of a g a.i./ha; • B=efficacy of the active compound (B) in % at an application rate of b g a.i./ha; • E^C=expected value of the effect of the combination (A)+(B) in % at the combined application rate a+b g a.i./ha.
Seeds or rhizome pieces of mono- and dicotyledonous weeds are placed in sandy loam in pots, covered with soil and grown in a greenhouse under good growth conditions (temperature, air humidity, water supply). Three weeks after sowing, the test plants were treated at the three-leaf stage with the compositions according to the invention. The compositions according to the invention formulated as spray powders or as emulsion concentrates were sprayed onto the green plant parts in various dosages with an application rate of 300 to 800 l/ha of water (equivalent). After the test plants have been left to stand in the greenhouse under optimal growth conditions for about 3 to 4 weeks, the action of the preparations is scored visually in comparison to untreated controls. […]

Amaranthus palmeri = experiment: Post-emergence herbicidal action against Amaranthus palmeri; details: for Herbicidal action: 16 DAT; for pest or weed control at […] / pest or weed control at 5 g/ha / pest or weed control at 15 g/ha: Amaranthus palmeri, post-emergence, 504 h; for pest or weed control at […]: 1.7 g of a.i./ha; for pest or weed control at 5 g/ha: 5 g of a.i./ha; for pest or weed control at 15 g/ha: 15 g of a.i./ha
In short: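 Pot-grown plants, three weeks old at the three-leaf stage, received foliar sprays of various dosages. Visual assessment relative to untreated plants followed 3 to 4 weeks later.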

Matricaria inodora = experiment: Post-emergence herbicidal action against Matricaria inodora; details: for Herbicidal action in [%] 28 DAT against Matricaria inodora: post-emergence; for Herbicidal action: 1 g a.i./ha
[1] = block with (B1.14) Tembotrione, read-out: Herbicidal action 21 DAT [%] against Amaranthus palmeri
[2] = block with (B1.7) Mesotrione, read-out: Herbicidal action 21 DAT [%] against Amaranthus palmeri
[3] = read-out: Herbicidal action 21 DAT [%] against Amaranthus palmeri

**Q.** With `C=C[C@]1(C(=O)N[C@H]2CO[C@@H](C(=O)OC)C2)CC(c2cc(F)cc(F)c2)=NO1` (relative stereo) [Compound A3, methyl rel-(2R,4R)-4-[[(5S)-3-(3,5-difluorophenyl)-5-vinyl-4H-isoxazole-5-carbonyl]amino]tetrahydrofuran-2-carboxylate] as the compound, how does the “Herbicidal action against Veronica hederifolia” value (Veronica hederifolia; 14 DAT, 1 g of a.i./ha) read?
**A.** 30%

**Q.** And the “Herbicidal action against Veronica hederifolia” value (Veronica hederifolia; 14 DAT, 16 g of a.i./ha)?
**A.** 40%

**Q.** And the “Herbicidal action against Veronica hederifolia” value (Veronica hederifolia; 28 DAT, 16 g of a.i./ha)?
**A.** 50%

**Q.** And the “Herbicidal action 14 DAT against Phalaris minor” value (Phalaris minor; 1 g of a.i./ha)?
**A.** 10%

**Q.** What about the “Herbicidal action 28 DAT against Phalaris minor” value (Phalaris minor; 1 g of a.i./ha) of the same compound?
**A.** 0% and 10%

**Q.** What about the “Herbicidal action 28 DAT against Phalaris minor” value (Phalaris minor; 4 g of a.i./ha) of the same compound?
**A.** 70%

**Q.** What about the “Herbicidal action in [%] 14 DAT against Phalaris minor” value (Phalaris minor; 1 g of a.i./ha) of the same compound?
**A.** 20%

**Q.** What about the “Herbicidal action in [%] 14 DAT against Phalaris minor” value (Phalaris minor; 4 g of a.i./ha) of the same compound?
**A.** 85%

**Q.** And the “Herbicidal action in [%] 14 DAT against Phalaris minor” value (Phalaris minor; 16 g of a.i./ha)?
**A.** 85%

**Q.** And the “Herbicidal action 28 DAT against Phalaris minor” value (Phalaris minor; 16 g of a.i./ha)?
**A.** 40%

**Q.** And the “Herbicidal action in [%] 28 DAT against Phalaris minor” value (Phalaris minor; 1 g of a.i./ha)?
**A.** 10%

**Q.** And the “Herbicidal action in [%] 28 DAT against Phalaris minor” value (Phalaris minor; 16 g of a.i./ha)?
**A.** 85%

**Q.** And the “Herbicidal action against Alopecurus myosuroides” value (Alopecurus myosuroides; 14 DAT, 1 g of a.i./ha)?
**A.** 15%

**Q.** And the “Herbicidal action against Alopecurus myosuroides” value (Alopecurus myosuroides; 14 DAT, 4 g of a.i./ha)?
**A.** 90%

**Q.** And the “Herbicidal action against Alopecurus myosuroides” value (Alopecurus myosuroides; 28 DAT, 1 g of a.i./ha)?
**A.** 15%

**Q.** What about the “Herbicidal action against Alopecurus myosuroides” value (Alopecurus myosuroides; 28 DAT, 4 g of a.i./ha) of the same compound?
**A.** 50%

**Q.** And the “Herbicidal action 43 DAT [%] against Bellis perenne” value (Bellis perenne)?
**A.** 0%

**Q.** What about the Herbicidal action (Amaranthus palmeri; 50 g a.i./ha) of the same compound?
**A.** 35%

**Q.** What about the Herbicidal action (Amaranthus palmeri; 100 g a.i./ha) of the same compound?
**A.** 45%

**Q.** And the pest or weed control at […] (Amaranthus palmeri; [1])?
**A.** 0%

**Q.** What about the pest or weed control at […] (Amaranthus palmeri; [2]) of the same compound?
**A.** 10%

**Q.** What about the pest or weed control at […] (Amaranthus palmeri; block with (B9.10) Saflufenacil, read-out: Herbicidal action 21 DAT [%] against Amaranthus palmeri) of the same compound?
**A.** 0%

**Q.** What about the pest or weed control at 5 g/ha (Amaranthus palmeri; [1]) of the same compound?
**A.** 10%

**Q.** What about the pest or weed control at 5 g/ha (Amaranthus palmeri; [2]) of the same compound?
**A.** 15%

**Q.** What about the pest or weed control at 5 g/ha (Amaranthus palmeri; [3]) of the same compound?
**A.** 15%

**Q.** And the pest or weed control at 15 g/ha (Amaranthus palmeri; [1])?
**A.** 30%

**Q.** What about the pest or weed control at 15 g/ha (Amaranthus palmeri; [3]) of the same compound?
**A.** 30%

**Q.** And the pest or weed control at 5 g/ha (Amaranthus palmeri; 21 DAT, read-out: Herbicidal action 21 DAT [%] against Amaranthus palmeri)?
**A.** 15%

**Q.** And the pest or weed control at […] (Amaranthus palmeri; 21 DAT)?
**A.** 10%

**Q.** What about the “Herbicidal action 14 DAT against Matricaria inodora” value (Matricaria inodora; 1 g of a.i./ha) of the same compound?
**A.** 0%

**Q.** What about the “Herbicidal action 28 DAT against Matricaria inodora” value (Matricaria inodora; 1 g of a.i./ha) of the same compound?
**A.** 0%

**Q.** What about the “Herbicidal action in [%] 28 DAT against Matricaria inodora” value (Matricaria inodora; 1 g of a.i./ha) of the same compound?
**A.** 0%

**Q.** What about the “Herbicidal action 14 DAT against Matricaria inodora” value (Matricaria inodora; 4 g of a.i./ha) of the same compound?
**A.** 30%

**Q.** And the “Herbicidal action 28 DAT against Matricaria inodora” value (Matricaria inodora; 4 g of a.i./ha)?
**A.** 30%

**Q.** And the “Herbicidal action in [%] 14 DAT against Matricaria inodora” value (Matricaria inodora; 4 g of a.i./ha)?
**A.** 20%

**Q.** What about the “Herbicidal action in [%] 28 DAT against Matricaria inodora” value (Matricaria inodora; 4 g of a.i./ha) of the same compound?
**A.** 0%

**Q.** What about the Herbicidal action (Matricaria inodora; 14 DAT) of the same compound?
**A.** 0%

**Q.** What about the “Herbicidal action against Matricaria inodora” value (Matricaria inodora; 14 DAT, 4 g of a.i./ha) of the same compound?
**A.** 20%

**Q.** And the “Herbicidal action against Matricaria inodora” value (Matricaria inodora; 14 DAT, 16 g of a.i./ha)?
**A.** 20%

**Q.** And the “Herbicidal action 14 DAT against Matricaria inodora” value (Matricaria inodora; 16 g of a.i./ha)?
**A.** 20%

**Q.** And the “Herbicidal action 28 DAT against Matricaria inodora” value (Matricaria inodora; 16 g of a.i./ha)?
**A.** 15%

**Q.** What about the “Herbicidal action in [%] 14 DAT against Matricaria inodora” value (Matricaria inodora; 16 g of a.i./ha) of the same compound?
**A.** 20% and 40%

**Q.** What about the Herbicidal action (Matricaria inodora; 28 DAT) of the same compound?
**A.** 0%
